Laboratory results as given in patent publication US20230219898A1, “COMPOUNDS AND METHODS FOR BLOCKING APOPTOSIS AND INDUCING AUTOPHAGY” (President and Fellows of Harvard College, priority 2020, published 2023).
pIC50: −log10 of the molar value. Like-named read-outs stand apart in the source and are kept apart here. Where a SMILES comes first, the peptide text is derived from it. The star is where a group is joined. Cbz = O=C(OCc1ccccc1)*; CH2F = FC*

Key:
Human Jurkat cells = experiment: Velcade-induced apoptosis of Jurkat cells, CellTiter-Glo viability; type: cell-based; conditions: 24 hours
Protocol: (§1) Human Jurkat cells were seeded in 96-well plates (20000 cells per well). Different concentrations of the compounds were added one hour prior to Velcade treatment, followed by the addition of 50 nM Velcade. After incubation for 24 hours, cell viability was measured by CellTiter-Glo Luminescent Cell Viability Assay.
(§2) The rates of cell death were measured in triplicate or quadruplicate in a 96-well or 384-well plate by using SYTOX Green Nucleic Acid Stain (Invitrogen) or ToxiLight Non-destructive Cytotoxicity BioAssay Kit (Lonza). The intensity of luminescence was determined in an EnSpire Multimode Plate Reader (PerkinElmer). Cytotoxicity is expressed as percentages of cell death per well after deducting the background signal in non-induced cells and compared to that of the maximal cell death with 100% Lysis Reagent. The rates of cell viability were determined by using CellTiter-Glo Luminescent Cell Viability Assay (Promega) following the manufacturer's protocol and the results are expressed as percentages of luminescence intensity per well after deducting the background signal in blank well and compared to that of the viability in the non-treated wells. Concentration of drugs used for inducing or inhibiting cell death, mTNFα: 1 ng/ml; 5Z-7-Oxozeaenol: 0.5 μM; Velcade: 50 nM; Apt-1/ICCB-19/ICCB-19i/Nec-1s: 10 μM.

Murine RGC5(661W) cells = experiment: RIPK1-dependent apoptosis (RDA) of RGC5 cells induced by TNFα plus 5Z-7-Oxozeaenol; type: cell-based; conditions: Mus musculus, 21 hours; for IC50: Table 3, 0.5 ng/ml TNFα plus 0.5 μM 5Z-7-Oxozeaenol, read-out: RGC5 T/5z7 IC50/μM; for pIC50: Table 2, 0.5 ng/ml TNFα plus 0.5 μM 5Z-7-Oxozeaenol, read-out: RGC5 T/5z7 IC50
Protocol: as §1, with “Murine RGC5(661W)” for “Human Jurkat”, “(4000” for “(20000”, “TNFα” for “Velcade”, “0.5 ng/ml TNFα plus 0.5 μM 5Z-7-Oxozeaenol to induce RIPK1-dependent apoptosis (RDA).” for “50 nM Velcade.”, “21” for “24”

MEFs = experiment: RDA in MEFs induced by mTNFα and 5Z-7-Oxozeaenol, cell survival; type: cell-based, mouse; conditions: 10 μM
Protocol: as §2

H4 cells = experiment: Autophagy by LC3II western blotting in H4 cells (FIG. 21); type: cell-based; conditions: 10 uM, 1 h pretreatment, 6 h vehicle or 40 mM NH4Cl
Protocol: (§3) Wild-type H4 and MEF cells that were pretreated for 1 h with 10 uM of the specified compounds, followed by 6 h treatment with either vehicle or 40 mM NH4Cl. Cell lysates were prepared and immunoblotted for LC3-I and LC3-II. Autophagy was determined by LC3II levels using western blotting.

MEF cells = experiment: Autophagy by LC3II western blotting in MEF cells (FIG. 21); type: cell-based, mouse; conditions: 10 uM, 1 h pretreatment, 6 h vehicle or 40 mM NH4Cl
Protocol: as §3

[1] = system: cleaved-caspase 3 (CC3) in MEF cells; experiment: Cleaved caspase 3 immunoblot in MEF cells treated with 5z-7-oxozeaenol and TNFα (FIG. 22); type: cell-based, mouse; conditions: 10 uM; 2 h 0.5 uM 5z-7-oxozeaenol and 1 ng/mL TNFα
Protocol: (§4) Specifically, wild-type MEF cells were pretreated for 1 h with 10 uM of the specified compounds, followed by 2 h treatment with 0.5 uM 5z-7-oxozeaenol and 1 ng/mL TNFα. Cell lysates were prepared and immunoblotted for cleaved-caspase 3 (CC3). Wild-type Jurkat cells were also pretreated for 1 h with 10 uM of the specified compounds, followed by 12 h treatment with 50 nM Velcade. Cell lysates were prepared and immunoblotted for cleaved-caspase 3 (CC3).

[2] = system: cleaved caspase-3 in Jurkat cells; experiment: Cleaved caspase-3 immunoblot in Velcade-treated cells; type: cell-based, human; conditions: 10 uM; 12 h 50 nM Velcade
Protocol: The levels of cleaved caspase-3 were determined by immunoblotting.
as §4

H4-GFP-LC3 cells = experiment: Autophagy induction, GFP-LC3 puncta and LC3II immunoblotting; type: cell-based; conditions: 10 μM, 6 h (zVAD.fmk 20 μM)
Protocol: Mean ±s.e.m. (n=5). One-way ANOVA, post hoc Dunnett's test.
Autophagy was determined by LC3II levels using immunoblotting. SE=shorter exposure, LE=longer exposure.
Autophagy was measured by LC3II induction and p62 reduction by immunoblotting. The levels of LC3II in cells treated with both Apt-1 and NH4Cl, the latter of which inhibits lysosome, were higher than that treated with either Apt-1 or NH4Cl alone. Thus, ICCB-19/Apt-1, but not ICCB-19i, induce autophagic flux. Mean ±s.e.m. from technical triplicates (n=3), representative of 3 independent experiments. Two-tailed t-test. **P=0.0037.
Levels of LC3II determined by immunoblotting.
Cells were seeded at 2.5×10^4 cells per well on poly-L-lysine coated glass cover slips and transfected as described. Cells were fixed in 4% paraformaldehyde, followed by permeabilization with 0.1% Triton X-100. Nuclei were stained using DAPI (Sigma). Cells expressing GFP or RFP-fusion proteins were imaged with an Olympus Fluoview FV1000 confocal microscope (Olympus) using a 40×objective. For GFP-LC3 and DsRed-FYVE puncta quantification, the average spot intensity in 1000 cells from each indicated sample was determined. Images were processed using ImageJ and Photoshop CC. Concentration of compounds used to induce or block autophagy: 10 μM (Apt-1, ICCB-19, ICCB-19i or Spautin-1), for 6 h or as indicated.

[3] = Table 3, 50 nM Velcade, read-out: Jurkat Velcade IC50/μM
[4] = Table 1, 50 nM Velcade, read-out: Apoptosis of Jurkat cells induced by Velcade (IC50 μM)

## CC(SC1=NCCN1C)C(=O)NC1CCCCCC1 (stereo not drawn) [Compound 27]
Human Jurkat cells; [3]
  IC50: 3.06 µM
Murine RGC5(661W) cells
  IC50: 2.81 µM

## CN1CCN=C1SC(C(=O)NC1CCCCCC1)c1ccc(Cl)cc1 (stereo not drawn) [Compound 35]
Human Jurkat cells; [3]
  IC50: 2.14 µM
Murine RGC5(661W) cells
  IC50: 1.6 µM

## FC(F)=C(F)CCSC1=NCCN1 [Compound 8]
Human Jurkat cells; [4]
  IC50: 17.3 µM

## N#Cc1ccc(CSC(=N)N)cc1 [Compound 7]
Human Jurkat cells; [4]
  IC50: 6.84 µM

## CC(SC1=NCCN1)C(=O)N(C)C1CCCCCC1 (stereo not drawn) [Compound 25]
Human Jurkat cells; [3]
  IC50: 1.22 µM
Murine RGC5(661W) cells
  IC50: 2.87 µM

## CN1C(=O)NC(Cc2c[nH]c3c(Cl)cccc23)C1=O (stereo not drawn) [Nec-1s, reference compound]
MEFs
  protection against RDA models: protected against multiple RDA models

## CN1CCN=C1SC(C(=O)NC1CCCCCC1)c1ccccc1Cl (stereo not drawn) [Compound 34]
Human Jurkat cells; [3]
  IC50: 0.882 µM
Murine RGC5(661W) cells
  IC50: 2.21 µM

## CC(SC1=NCCN1)C(=O)NC1CCCCCC1 (stereo not drawn) [Compound 18]
Human Jurkat cells; [3]
  IC50: 3.66 µM
Murine RGC5(661W) cells
  IC50: 4.02 µM

## O=C(CSC1=NCCN1)NC1CCCC1 [Compound 13]
Murine RGC5(661W) cells
  pIC50: 5.47

## CN1CCN=C1SCC(=O)N(C)C1CCCCCC1 [Compound 26]
Human Jurkat cells; [3]
  IC50: 1.99 µM
Murine RGC5(661W) cells
  IC50: 3.08 µM

## O=C(CSC1=NCCN1)NC(c1ccccc1)c1ccccc1 [Compound 37]
Human Jurkat cells; [3]
  IC50: 1.17 µM
Murine RGC5(661W) cells
  IC50: 3.05 µM

## O=C(CSC1=NCCN1)NC1CCCCC1 [Compound 12]
Murine RGC5(661W) cells
  pIC50: 5.63

## Cc1ccc(NC(=O)CSC2=NCCN2)cc1 [Compound 4]
Human Jurkat cells; [4]
  IC50: 10.5 µM

## Fc1ccccc1CSC1=NCCN1 [Compound 40]
Human Jurkat cells; [3]
  IC50: 3.23 µM
Murine RGC5(661W) cells
  IC50: 5.87 µM
H4 cells
  autophagy (LC3II levels) in H4 cells: induce autophagy
MEF cells
  autophagy (LC3II levels) in MEF cells: induce autophagy
[1]
  cleaved caspase 3 in MEF cells: block cleaved caspase 3
[2]
  cleaved caspase 3 in Jurkat cells: block cleaved caspase 3

## CC(SC1=NCCN1C)C(=O)N(C)C1CCCCCC1 (stereo not drawn) [Compound 28]
Human Jurkat cells; [3]
  IC50: 0.953 µM
Murine RGC5(661W) cells
  IC50: 2.93 µM

## Cc1ccccc1NC(=O)CSC1=NCCN1 [Compound 3]
Human Jurkat cells; [4]
  IC50: 32.1 µM

## CN1CCN=C1SCC(=O)NC1CCCCCC1 [Compound 19]
Human Jurkat cells; [3]
  IC50: 1.8 µM
Murine RGC5(661W) cells
  IC50: 3.33 µM

## COc1ccc(NC(=O)CSC2=NCCN2)cc1 [Compound 5]
Human Jurkat cells; [4]
  IC50: 46.4 µM

## C/N=C(\NC)NCC(=O)N1CCCC1 [Compound 38]
H4 cells
  autophagy (LC3II levels) in H4 cells: induce autophagy
MEF cells
  autophagy (LC3II levels) in MEF cells: induce autophagy
[1]
  cleaved caspase 3 in MEF cells: block cleaved caspase 3
[2]
  cleaved caspase 3 in Jurkat cells: block cleaved caspase 3

## COc1ccc(CSC(=N)N)cc1[N+](=O)[O-] [Compound 2]
Human Jurkat cells; [4]
  IC50: 4.4 µM

## CC(C)C(SC1=NCCN1C)C(=O)NC1CCCCCC1 (stereo not drawn) [Compound 29]
Human Jurkat cells; [3]
  IC50: 3.87 µM
Murine RGC5(661W) cells
  IC50: 1.83 µM

## CCN1CCN=C1SC(C(=O)NC1CCCCCC1)c1ccccc1 (stereo not drawn) [Compound 36]
Human Jurkat cells; [3]
  IC50: 1.07 µM
Murine RGC5(661W) cells
  IC50: 1.79 µM

## CN1CCN=C1SC(C(=O)NC(c1ccccc1)c1ccccc1)c1ccccc1 (stereo not drawn) [Compound 42]
Human Jurkat cells; [3]
  IC50: 1.15 µM
Murine RGC5(661W) cells
  IC50: 1.57 µM

## O=C(CSC1=NCCN1)N1CCc2ccccc21 [ICCB-17]
Human Jurkat cells; [4]
  IC50: 13.4 µM

## O=C(CSC1=NCCN1)NC1CCC1 [Compound 14]
Murine RGC5(661W) cells
  pIC50: 5.35

## CN(C(=O)CSC1=NCCN1)C1CCCCCC1 [Compound 16]
Human Jurkat cells; [3]
  IC50: 1.46 µM
Murine RGC5(661W) cells
  IC50: 8.84 µM

## COC(=O)C[C@H](NC(=O)[C@H](C)NC(=O)[C@@H](NC(=O)OCc1ccccc1)C(C)C)C(=O)CF [zVAD.fmk, reference compound] (Cbz-Val-Ala-Asp(OMe)-CH2F)
H4-GFP-LC3 cells
  induction of autophagy: no effect on autophagy

## N=C(N)SCc1ccccc1F [Compound 1]
Human Jurkat cells; [4]
  IC50: 6.2 µM

## CN1CCN=C1SC(C)(C)C(=O)NC1CCCCCC1 [Compound 33]
Human Jurkat cells; [3]
  IC50: 1.04 µM
Murine RGC5(661W) cells
  IC50: 1.67 µM
